Laboratory results reported in PMC10061512 (ACS Omega, 2023).

Tests used:
[1] = target: EeAChE (Electrophorus electricus, UniProt O42275); test: AChE inhibition and enzyme kinetics, Ellman assay; assay type: biochemical, electric eel
[2] = target: eqBChE (Equus caballus, UniProt P81908); test: BChE inhibition and enzyme kinetics, Ellman assay; assay type: biochemical, equine
[3] = target: amyloid β 1–42 peptide (Homo sapiens, UniProt P05067); test: Aβ-42 self-aggregation inhibition assay; assay type: biochemical; settings: read-out: inhibition of self-aggregation of Aβ1–42 monomers
[4] = target: T1, hBACE-1 (Homo sapiens, UniProt P56817); settings: Lineweaver–Burk double-reciprocal plot
[5] = PAMPA–BBB
[6] = in vitro; settings: pig, PAMPA, pH 7.4
[7] = target: T1, hBACE-1; test: biochemical
[8] = Lineweaver–Burk double-reciprocal plot

Chain of EeAChE (O42275 24-633): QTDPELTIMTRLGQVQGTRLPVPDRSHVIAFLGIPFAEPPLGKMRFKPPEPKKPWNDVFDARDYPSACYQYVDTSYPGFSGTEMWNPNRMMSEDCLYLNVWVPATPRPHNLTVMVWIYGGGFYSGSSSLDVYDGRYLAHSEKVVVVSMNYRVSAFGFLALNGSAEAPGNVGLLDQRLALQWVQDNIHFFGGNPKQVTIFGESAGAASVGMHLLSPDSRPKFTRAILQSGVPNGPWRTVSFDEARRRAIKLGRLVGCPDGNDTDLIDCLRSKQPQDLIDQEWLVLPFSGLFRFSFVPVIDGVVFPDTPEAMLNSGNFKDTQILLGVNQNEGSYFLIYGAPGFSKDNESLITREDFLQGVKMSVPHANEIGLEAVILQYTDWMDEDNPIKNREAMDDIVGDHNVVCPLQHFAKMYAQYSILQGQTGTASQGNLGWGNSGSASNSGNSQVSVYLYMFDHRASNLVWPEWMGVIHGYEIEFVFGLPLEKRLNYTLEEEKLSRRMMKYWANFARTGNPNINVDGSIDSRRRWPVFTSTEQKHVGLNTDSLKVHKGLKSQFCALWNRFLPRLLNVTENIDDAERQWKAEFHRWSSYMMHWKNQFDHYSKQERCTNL
Chain of eqBChE (P81908 whole entry): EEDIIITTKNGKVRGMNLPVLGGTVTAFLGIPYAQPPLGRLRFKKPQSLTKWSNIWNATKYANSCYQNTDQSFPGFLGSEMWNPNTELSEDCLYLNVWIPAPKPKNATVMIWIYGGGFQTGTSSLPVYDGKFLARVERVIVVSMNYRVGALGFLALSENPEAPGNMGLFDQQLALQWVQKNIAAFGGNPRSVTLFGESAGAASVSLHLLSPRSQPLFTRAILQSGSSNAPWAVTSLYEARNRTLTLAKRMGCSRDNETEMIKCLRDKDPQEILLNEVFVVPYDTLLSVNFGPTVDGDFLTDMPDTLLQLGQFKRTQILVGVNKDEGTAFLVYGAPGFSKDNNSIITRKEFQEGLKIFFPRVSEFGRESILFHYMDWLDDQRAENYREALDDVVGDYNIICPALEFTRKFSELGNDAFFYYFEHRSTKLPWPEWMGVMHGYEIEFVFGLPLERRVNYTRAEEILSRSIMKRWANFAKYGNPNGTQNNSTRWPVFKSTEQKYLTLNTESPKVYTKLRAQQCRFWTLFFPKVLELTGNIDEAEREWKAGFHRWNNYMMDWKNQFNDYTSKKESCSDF
T1 sequence (P56817 46-501): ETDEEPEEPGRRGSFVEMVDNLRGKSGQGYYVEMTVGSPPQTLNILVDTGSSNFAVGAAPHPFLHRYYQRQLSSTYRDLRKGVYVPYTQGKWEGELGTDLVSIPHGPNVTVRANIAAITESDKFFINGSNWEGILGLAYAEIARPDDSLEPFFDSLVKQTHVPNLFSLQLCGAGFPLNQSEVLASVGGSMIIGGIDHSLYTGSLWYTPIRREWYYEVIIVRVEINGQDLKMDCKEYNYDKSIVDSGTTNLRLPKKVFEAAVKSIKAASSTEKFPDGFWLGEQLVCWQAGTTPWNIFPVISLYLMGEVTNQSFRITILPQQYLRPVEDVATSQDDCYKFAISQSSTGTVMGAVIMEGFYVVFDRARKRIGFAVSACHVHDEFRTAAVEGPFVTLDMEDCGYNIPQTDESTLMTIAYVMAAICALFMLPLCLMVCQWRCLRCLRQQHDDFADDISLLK
Chain of amyloid β 1–42 peptide (P05067 672-713): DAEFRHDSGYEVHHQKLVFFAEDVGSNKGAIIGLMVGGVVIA

Question: With COc1cc(Cn2cc(COc3ccc4ccc(=O)oc4c3C(C)=O)nn2)cc(OC)c1 [10b, 8-Acetyl-7-((1-(3,5-dimethoxybenzyl)-1H-1,2,3-triazol-4-yl)methoxy)-2H-chromen-2-one] as the molecule, how does the Ki [1] read?
Answer: 0.27 µM

Question: What about the “fold difference in AChE inhibition activity of 10b vs 19b” value ([1]; 10b vs 19b) of the same molecule?
Answer: 20 fold

Question: What about the IC50 ([1]; IC50 (μM) ± SD EeAChE, Ellman assay) of the same molecule?
Answer: 2.57 ± 0.31 µM

Question: And the “mode of inhibition, AChE” value [1, 8]?
Answer: noncompetitive

Question: What about the IC50 [2] of the same molecule?
Answer: 3.26 ± 0.13 µM

Question: What about the Ki [2] of the same molecule?
Answer: 3.5 µM

Question: What about the “mode of inhibition, BChE” value [2, 8] of the same molecule?
Answer: mixed type

Question: What about the inhibition at 10 µM [3] of the same molecule?
Answer: 37%

Question: And the “mode of inhibition, BACE-1” value [4]?
Answer: mixed type

Question: What about the “prediction of CNS permeation” value [5] of the same molecule?
Answer: CNS+

Question: What about the Papp [6] of the same molecule?
Answer: 5.68 ± 1.1 ×10⁻⁶ cm/s

Question: And the Ki [7]?
Answer: 7 µM
